According to ChEMBL document CHEMBL1201862, “PubChem BioAssay data set” (2004):
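A five-concentration, 48-hour dose response in 96-well plates underlies each endpoint, interpolated linearly between surrounding concentrations. At the GI50, growth is halved.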 The source made the active and inactive calls. Cut-off read from the data, not from the text of the source: active = GI50 up to about 1.1 µM and inactive = higher. Non-standard residues stand in square brackets, D forms with d. Residues, ends and D or L forms follow the SMILES beside them. ξ: configuration not given here. *: point of attachment. ξNMeF = CNC(Cc1ccccc1)C(=O)O; NMeV = CN[C@H](C(=O)O)C(C)C; Boc = CC(C)(C)OC(=O)*; OBn = c1ccc(CO*)cc1

Columns and labels:
Assay in all cases: inhibition of tumour cell growth, NCI panel, 48 h
DMS-114 = test system: DMS-114
HOP-18 = test system: HOP-18
KM-20L2 = test system: KM-20L2
RXF 631 = test system: RXF 631
SNB-78 = test system: SNB-78
XF498 = test system: XF498
LXFL 529 = test system: LXFL 529
BT-549 = test system: BT-549
Hs-578T = test system: Hs-578T

COc1nc(NC2OCC(OC(C)=O)C(OC(C)=O)C2OC(C)=O)c(/N=C(\C)C(C)=O)c(=O)n1C (stereo not given)
GI50 (DMS-114): > 100 µM (inactive)
GI50 (HOP-18): > 100 µM (inactive)
GI50 (KM-20L2): > 100 µM (inactive)
GI50 (RXF 631): > 100 µM (inactive)
GI50 (SNB-78): > 100 µM (inactive)
GI50 (XF498): > 100 µM (inactive)

O=c1cc(/C=C/c2ccccc2)c2ccc(O/C(=C\c3ccccc3)c3nc4ccccc4c(=O)o3)cc2o1
GI50 (DMS-114): 15.1 µM (inactive)
GI50 (KM-20L2): 31.5 µM (inactive)
GI50 (LXFL 529): 14.8 µM (inactive)
GI50 (RXF 631): 28.1 µM (inactive)
GI50 (SNB-78): 19.5 µM (inactive)
GI50 (XF498): 14.9 µM (inactive)

CS(=O)(=O)OCCN(CCOS(C)(=O)=O)c1ccc(C=O)cc1
GI50 (BT-549): 13 µM (inactive)
GI50 (DMS-114): 8.05 µM (inactive)
GI50 (HOP-18): 9.16 µM (inactive)
GI50 (Hs-578T): 14.3 µM (inactive)
GI50 (KM-20L2): 3.28 µM (inactive)
GI50 (LXFL 529): 18.1 µM (inactive)
GI50 (SNB-78): 27.2 µM (inactive)
GI50 (XF498): 1.97 µM (inactive)

CN1C(=O)CC2(C)c3cc(C=O)ccc3N(C)C12 (stereo not given)
GI50 (DMS-114): > 100 µM (inactive)
GI50 (HOP-18): > 100 µM (inactive)
GI50 (KM-20L2): > 100 µM (inactive)
GI50 (LXFL 529): > 100 µM (inactive)
GI50 (RXF 631): > 100 µM (inactive)
GI50 (SNB-78): > 100 µM (inactive)
GI50 (XF498): > 100 µM (inactive)

CCCCc1c2c(nc3c1CCCC3O)/C(=C/c1ccccc1)CCC2 (stereo not given)
GI50 (DMS-114): 22.9 µM (inactive)
GI50 (HOP-18): 24.4 µM (inactive)
GI50 (KM-20L2): 35.2 µM (inactive)
GI50 (LXFL 529): 34.1 µM (inactive)
GI50 (SNB-78): 56 µM (inactive)
GI50 (XF498): 13.2 µM (inactive)

COC(=O)C1CCC(N2C(=O)CCC2C(=O)OC)=N1 (stereo not given)
GI50 (HOP-18): > 100 µM (inactive)
GI50 (KM-20L2): > 100 µM (inactive)
GI50 (LXFL 529): > 100 µM (inactive)
GI50 (RXF 631): > 100 µM (inactive)
GI50 (SNB-78): > 100 µM (inactive)
GI50 (XF498): > 100 µM (inactive)

COC(=O)C(=O)C(C(=O)C(=O)Nc1ccc(Cl)cc1C)c1nc2ccc(C(=O)c3ccccc3)cc2nc1O (stereo not given)
GI50 (DMS-114): 36 µM (inactive)
GI50 (HOP-18): > 100 µM (inactive)
GI50 (KM-20L2): > 100 µM (inactive)
GI50 (LXFL 529): 65.2 µM (inactive)
GI50 (RXF 631): > 100 µM (inactive)
GI50 (SNB-78): > 100 µM (inactive)

CC(=O)c1ccc(NC(=O)C(=O)CC(=O)c2sc(-n3nc(-c4ccccc4)cc3-c3ccccc3)nc2C)cc1
GI50 (DMS-114): > 100 µM (inactive)
GI50 (KM-20L2): > 100 µM (inactive)
GI50 (LXFL 529): > 100 µM (inactive)
GI50 (RXF 631): > 100 µM (inactive)
GI50 (SNB-78): > 100 µM (inactive)

CC1(C)C2=CCCC(=O)[C@@]2(C)CC[C@@H]1O
GI50 (DMS-114): > 100 µM (inactive)
GI50 (HOP-18): > 100 µM (inactive)
GI50 (KM-20L2): > 100 µM (inactive)
GI50 (LXFL 529): > 100 µM (inactive)
GI50 (SNB-78): > 100 µM (inactive)
GI50 (XF498): > 100 µM (inactive)

CC(=O)OCC1OC(n2c(-c3ccc(C)cc3)cc(-c3ccccc3)c(C#N)c2=O)C(OC(C)=O)C(OC(C)=O)C1OC(C)=O (stereo not given)
GI50 (DMS-114): > 100 µM (inactive)
GI50 (KM-20L2): > 100 µM (inactive)
GI50 (LXFL 529): > 100 µM (inactive)
GI50 (RXF 631): > 100 µM (inactive)
GI50 (SNB-78): > 100 µM (inactive)
GI50 (XF498): 86.9 µM (inactive)

CCOC(=O)C(=Cc1ccc(Oc2ccccc2)cc1)C(=O)OCC
GI50 (BT-549): 1.84 µM (inactive)
GI50 (DMS-114): 3.07 µM (inactive)
GI50 (HOP-18): 13.8 µM (inactive)
GI50 (KM-20L2): 4.65 µM (inactive)
GI50 (LXFL 529): 2.29 µM (inactive)
GI50 (RXF 631): 3.03 µM (inactive)
GI50 (SNB-78): 5.7 µM (inactive)
GI50 (XF498): 4.32 µM (inactive)

O=C1c2ccccc2C(=O)C2C1C1C(=O)c3ccccc3C(=O)C21 (stereo not given)
GI50 (DMS-114): > 100 µM (inactive)
GI50 (HOP-18): 8.69 µM (inactive)
GI50 (KM-20L2): > 100 µM (inactive)
GI50 (LXFL 529): > 100 µM (inactive)
GI50 (RXF 631): > 100 µM (inactive)

CN1Nc2ccccc2CC1=O
GI50 (DMS-114): > 100 µM (inactive)
GI50 (HOP-18): > 100 µM (inactive)
GI50 (KM-20L2): > 100 µM (inactive)
GI50 (SNB-78): > 100 µM (inactive)
GI50 (XF498): > 100 µM (inactive)

N#CCCN(CCC#N)c1ccc(/C=C(\NC(=O)c2cc([N+](=O)[O-])ccc2Cl)C(=O)Nc2ccccc2)cc1
GI50 (DMS-114): 55 µM (inactive)
GI50 (HOP-18): > 100 µM (inactive)
GI50 (KM-20L2): > 100 µM (inactive)
GI50 (LXFL 529): 10.5 µM (inactive)
GI50 (SNB-78): > 100 µM (inactive)
GI50 (XF498): > 100 µM (inactive)

O=C(N/C(=C\c1ccccc1Cl)c1nc2ccccc2[nH]1)c1ccccc1
GI50 (DMS-114): 35 µM (inactive)
GI50 (KM-20L2): 22.8 µM (inactive)
GI50 (LXFL 529): 21.9 µM (inactive)
GI50 (RXF 631): 26.5 µM (inactive)
GI50 (SNB-78): 45.6 µM (inactive)
GI50 (XF498): 23.8 µM (inactive)

Brc1ccc2c(c1)C1C(CO2)C(c2ccccc2)=NN1c1ccccc1 (stereo not given)
GI50 (DMS-114): > 100 µM (inactive)
GI50 (HOP-18): 60 µM (inactive)
GI50 (KM-20L2): > 100 µM (inactive)
GI50 (LXFL 529): > 100 µM (inactive)
GI50 (SNB-78): > 100 µM (inactive)
GI50 (XF498): > 100 µM (inactive)

Cc1nc2nn(Cc3ccccc3)cc2c(=O)o1
GI50 (DMS-114): > 100 µM (inactive)
GI50 (KM-20L2): > 100 µM (inactive)
GI50 (LXFL 529): > 100 µM (inactive)
GI50 (RXF 631): > 100 µM (inactive)
GI50 (SNB-78): > 100 µM (inactive)
GI50 (XF498): 74.5 µM (inactive)

O=C(CC(=O)c1ccccc1NC1=Cc2ccccc2C(=O)C1=O)C(=O)NC1=C(Cl)C(=O)c2ccccc2C1=O
GI50 (BT-549): 3.76 µM (inactive)
GI50 (DMS-114): 1.68 µM (inactive)
GI50 (Hs-578T): 1.9 µM (inactive)
GI50 (KM-20L2): 9.77 µM (inactive)
GI50 (LXFL 529): 2.46 µM (inactive)
GI50 (RXF 631): 4.37 µM (inactive)
GI50 (SNB-78): 2.16 µM (inactive)
GI50 (XF498): 2.49 µM (inactive)

CCCCN1C(=O)NC(Cc2ccccc2)C1=O (stereo not given)
GI50 (DMS-114): > 100 µM (inactive)
GI50 (HOP-18): > 100 µM (inactive)
GI50 (KM-20L2): > 100 µM (inactive)
GI50 (LXFL 529): > 100 µM (inactive)
GI50 (SNB-78): > 100 µM (inactive)
GI50 (XF498): > 100 µM (inactive)

COC1CCC2C(NS(=O)(=O)c3ccc(C)cc3)CCCC2O1.Cc1ccc(S(=O)(=O)NC(C)(C)C=O)cc1 (stereo not given)
GI50 (DMS-114): 9.31 µM (inactive)
GI50 (KM-20L2): 32.6 µM (inactive)
GI50 (RXF 631): 10.2 µM (inactive)
GI50 (SNB-78): > 34.5 µM (inactive)

COC1OCC(O)C(NC(=O)N(C)N=O)C1O (stereo not given)
GI50 (DMS-114): > 100 µM (inactive)
GI50 (HOP-18): > 100 µM (inactive)
GI50 (KM-20L2): > 100 µM (inactive)
GI50 (SNB-78): > 100 µM (inactive)
GI50 (XF498): > 100 µM (inactive)

O=C(NO)c1ccc(O)c(O)c1
GI50 (DMS-114): 55.1 µM (inactive)
GI50 (HOP-18): 72.3 µM (inactive)
GI50 (KM-20L2): > 100 µM (inactive)
GI50 (LXFL 529): > 100 µM (inactive)
GI50 (RXF 631): > 100 µM (inactive)
GI50 (SNB-78): > 100 µM (inactive)
GI50 (XF498): > 100 µM (inactive)

CC(C)[C@@H](C(=O)N(C)[C@H](C(=O)N1CCC[C@H]1C(=O)OCc1ccccc1)C(C)C)N(C)C(=O)C(Cc1ccccc1)N(C)C(=O)[C@H](NC(=O)OC(C)(C)C)C(C)C (stereo not given in full) (Boc-[dV][ξNMeF][NMeV][NMeV]P-OBn)
GI50 (DMS-114): 20.6 µM (inactive)
GI50 (HOP-18): > 72.6 µM (inactive)
GI50 (KM-20L2): > 31.6 µM (inactive)
GI50 (LXFL 529): 42.9 µM (inactive)
GI50 (XF498): 13.4 µM (inactive)

O=c1[nH]c2c(O)cccc2c2cc3c(c(O)c12)OCO3 [NARCIPRIMINE]
GI50 (DMS-114): 19.1 µM (inactive)
GI50 (HOP-18): 0.0524 µM (active)
GI50 (KM-20L2): 12.8 µM (inactive)
GI50 (LXFL 529): 18.3 µM (inactive)
GI50 (SNB-78): 21.3 µM (inactive)
GI50 (XF498): 15.6 µM (inactive)
